This is an account of results in patent US4473579A, “Antiatherosclerotic tetrasubstituted ureas and thioureas” (American Cyanamid Company, priority 1982, dated 1984).

Assay [1] concerns the target T1, fatty acyl CoA:cholesterol acyl transferase (ACAT) (Rattus norvegicus, UniProt O70536).
T1 construct: Rat adrenals were homogenized in 0.2M monobasic potassium phosphate buffer; from tissue; host or cells: rat adrenals, 1000 x g supernatant containing the microsomal fraction
T1 sequence (O70536 1-545): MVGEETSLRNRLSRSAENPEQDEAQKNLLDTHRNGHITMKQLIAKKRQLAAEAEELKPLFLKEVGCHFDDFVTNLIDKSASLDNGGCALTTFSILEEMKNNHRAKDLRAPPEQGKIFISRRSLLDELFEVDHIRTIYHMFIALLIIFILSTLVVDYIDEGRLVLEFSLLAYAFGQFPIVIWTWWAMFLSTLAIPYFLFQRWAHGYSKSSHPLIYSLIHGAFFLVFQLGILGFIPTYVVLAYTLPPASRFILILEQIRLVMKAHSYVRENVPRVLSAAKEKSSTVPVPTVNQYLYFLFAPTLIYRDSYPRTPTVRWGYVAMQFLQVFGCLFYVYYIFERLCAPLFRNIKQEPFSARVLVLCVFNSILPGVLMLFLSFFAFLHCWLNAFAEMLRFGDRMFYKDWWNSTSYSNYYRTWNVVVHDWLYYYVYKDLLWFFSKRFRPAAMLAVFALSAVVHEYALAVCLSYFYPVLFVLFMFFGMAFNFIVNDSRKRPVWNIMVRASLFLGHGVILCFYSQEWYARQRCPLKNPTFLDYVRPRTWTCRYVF
Briefly: In vitro inhibition of fatty acyl CoA:cholesterol acyl transferase (ACAT), rat adrenal supernatant. It is filed as biochemical. Particulars: test compound final concentration 5.2 g./ml. (so in the source), pH 7.4, 37° C., 10 minutes. How it is done: (§1) The compounds of the present invention were assayed for two types of biological activity related to their potential use as antiatherosclerotic agents. Compounds were tested in vitro for their ability to inhibit the enzyme fatty acyl CoA:cholesterol acyl transferase (ACAT) and in vivo for serum hypolipidemic activity as measured by their ability to inhibit lipid absorption in rats. The compounds were tested for their ability to inhibit ACAT according to the following procedure:
Rat adrenals were homogenized in 0.2M monobasic potassium phosphate buffer, pH 7.4, and centrifuged at 1000 times gravity for 15 minutes at 5° C. The supernatant, containing the microsomal fraction, served as the source of the cholesterol-esterifying enzyme, fatty acyl CoA:cholesterol acyl transferase (ACAT). A mixture comprising 50 parts of adrenal supernatant, 10 parts of albumin (BSA) (50 mg./ml.), 3 parts of test compound (final concentration […].) and 500 parts of buffer was preincubated at 37° C. for 10 minutes. After treatment with 20 parts of oleoyl CoA(^14 C-[…]) the mixture was incubated at 37° C. for 10 minutes. A control mixture, omitting the test compound, was prepared and treated in the same manner. The lipids from the incubation mixture were extracted into an organic solvent and separated by thin-layer chromatography. The cholesteryl ester fraction was counted in a scintillation counter. This procedure is a modification of that described by Hashimoto, et al., Life Scie., 12 (Part II), 1-12 (1973).

A further assay relates to cholesterol absorption. The assay is described as follows: Inhibition of cholesterol absorption in cholesterol/cholic acid fed rats (serum or liver cholesterol lowering). It is filed as in vivo, male Sprague-Dawley rats. Particulars: 0.03% of the diet; 1% cholesterol: 0.5% cholic acid diet for 2 weeks; lowering of serum or liver cholesterol relative to control rats. As to the method: as §1
Inhibition of cholesterol absorption was determined by feeding male Sprague-Dawley rats, weighing 150-170 g., a 1% cholesterol: 0.5% cholic acid diet for 2 weeks. The diet was contained compounds being tested at a dose of 0.03% of the diet. Control rats were fed the same diet without any compound. At the end of the test, the rats were sacrificed by decapitation. Blood is collected, centrifuged at 1.5 kg times gravity for 10 minutes at 4° C., and the serum is then analyzed for cholesterol and triglycerides enzymatically by the method of Trinder, P., Analyst, 77, 321 (1952) on a Centrifichem 400 Analyzer. […] The resulting neutral sterols are extracted with petroleum ether and extract analyzed for cholesterol. The effectiveness of the compound in inhibiting cholesterol absorption is measured by the lowering of either serum cholesterol or liver cholesterol relative the values for control rats.

SMILES strings stand for the structures.

With `CCCCN(Cc1ccccc1)C(=O)N(CCCC)Cc1ccccc1` [1,3-Dibenzyl-1,3-di-(n-butyl)urea], the “% Inhibition (ACAT)” value in assay [1] is reported as 95.4%.

With `CCCCN(Cc1ccccc1)C(=O)N(Cc1ccccc1)c1ccccc1` [1,3-Dibenzyl-1-(n-butyl)-3-phenylurea], the “% Inhibition (ACAT)” value in assay [1] is reported as 81.8%.

On to `CCCCN(Cc1ccccc1)C(=O)N(c1ccc2ccccc2c1)c1ccc2ccccc2c1` [1-Benzyl-1-(n-butyl)-3,3-di(2-naphthyl)urea], for which the “% Inhibition (ACAT)” value in assay [1] came to 93.2%.

In the case of `CCCCN(Cc1ccccc1)C(=O)N(c1ccccc1)c1ccccc1` [1-Benzyl-1-(n-butyl)-3,3-diphenylurea], in assay [1], the “% Inhibition (ACAT)” value came out at 75.9%.

For `CCCCN(Cc1ccccc1)C(=O)N(c1ccccc1)c1cccc2ccccc12` [1-Benzyl-1-(n-butyl)-3-(1-naphthyl)-3-phenylurea], the “% Inhibition (ACAT)” value in assay [1] amounted to 76.3%.

With `CCCCN(Cc1ccccc1)C(=O)N(c1ccccc1)c1ccc2ccccc2c1` [1-Benzyl-1-(n-butyl)-3-(2-naphthyl)-3-phenylurea], in assay [1], the “% Inhibition (ACAT)” value worked out at 83.6%.

`CCCCN(Cc1ccccc1)C(=O)N(c1cccc(Cl)c1)c1ccc2ccccc2c1` [1-Benzyl-1-(n-butyl)-3-(3-chlorophenyl)-3-(2-naphthyl)urea]: the “% Inhibition (ACAT)” value in assay [1] is recorded as 82.7%.

On to `CCCCN(Cc1ccccc1)C(=O)N(c1ccccc1)c1cccc(Cl)c1` [1-Benzyl-1-(n-butyl)-3-(3-chlorophenyl)-3-phenylurea], for which the “% Inhibition (ACAT)” value in assay [1] is on record as 72.3%.

In the case of `CCCCN(Cc1ccccc1)C(=O)N(c1ccccc1)c1cccc(OC)c1` [1-Benzyl-1-(n-butyl)-3-(3-methoxyphenyl)-3-phenylurea], the “Result (inhibition of cholesterol absorption)” value in the assay with cholesterol absorption is listed as “Active”. In addition, the “% Inhibition (ACAT)” value in assay [1] turned out to be 82.5%.

With `CCCCN(Cc1ccccc1)C(=O)N(c1ccccc1)c1cccc(C)c1` [1-Benzyl-1-(n-butyl)-3-(3-methylphenyl)-3-phenylurea], in assay [1], the “% Inhibition (ACAT)” value is 82.0%.

`CCCCN(Cc1ccccc1)C(=O)N(c1ccccc1)c1ccc(OC(C)C)cc1` [1-Benzyl-1-(n-butyl)-3-(4-isopropoxyphenyl)-3-phenylurea]: in assay [1], the “% Inhibition (ACAT)” value is recorded as 77.8%.
